Experimental data: patent publication US10814019B2, “MRI signal suppression agents, compositions, and methods” (University of Washington, priority 2014, dated 2020)

Experiments:
[1] = mDixon signal intensity of whole venous blood samples containing Ablavar; assay type: physicochemical
Procedure: Six in vitro whole venous blood samples each contained a different concentration (0, 2, 4, 6, 8, and 12 mM) of gadofosveset trisodium (Ablavar). For long echo time pairs (e.g., 11.5 ms/12.7 ms), the signal intensity decreased rapidly with Ablavar concentration greater than about 4 mM.

[2] = in vivo; cited from earlier work

Q: Which “signal intensity relative to pure blood” value ([1]; 12 mM Ablavar, echo times as short as 6.9 ms/8.1 ms) does the source give for `O=C([O-])CN(CCN(CC(=O)[O-])CC(COP(=O)([O-])OC1CCC(c2ccccc2)(c2ccccc2)CC1)N(CC(=O)[O-])CC(=O)[O-])CC(=O)[O-].[Gd+3].[Na+].[Na+].[Na+]` (stereo not drawn) [Ablavar, gadofosveset trisodium] here?
A: The value was “below that of pure blood”.

Q: What about the “Ablavar concentration above which signal intensity decreased rapidly” value ([1]; long echo time pairs (e.g., 11.5 ms/12.7 ms)) of the same compound?
A: Its value is “greater than 4 mM”.

Q: What about the half-life [2] of the same compound?
A: Its half-life is “about 30 minutes”.
